Among the data in PubChem BioAssay (NCI) are GI50 and TGI values, retold here.

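Tested at 5 concentrations; 48 h exposure; 96-well plates; endpoints linearly interpolated, else capped at highest concentration. GI50 = concentration required for 50% inhibition of growth. TGI is the concentration that stops growth completely.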 A value given as a limit tells only on which side of the number the result lay.

Common to all, as to test: inhibition of tumour cell growth, NCI panel, 48 h
Assay [1] concerns SW-620 colon.
Assay [2] relates to SK-MEL-5 melanoma.
Assay [3] deals with RPMI-8226 leukemia.
The subject of assay [4] is HCT-15 colon.
The test system of assay [5] is OVCAR-5 ovarian.
The subject of assay [6] is MDA-MB-435.
Assay [7] concerns SNB-19 CNS.
The test system of assay [8] is HOP-62 NSCLC.
The test system of assay [9] is HS 578T breast.
Assay [10] concerns IGROV1 ovarian.

As for `C/C(=N\NC(=O)c1sc(=S)n(C)c1N)c1cc2ccccc2o1`, the GI50 in assay [1] was 14.8 µM; in [2], 10.8 µM; in assay [3] it was 12.5 µM; in assay [4] it was 10.6 µM; in assay [5] it was 16.4 µM; in [6] it was 8.65 µM. The GI50 in assay [7] was 17.1 µM; in assay [8], 13.3 µM; in assay [9] it was 11.7 µM; in assay [10], 21.4 µM. Moreover, the TGI in assay [1] stood at 28.4 µM; in assay [2] it was 30.1 µM; in assay [3], 49.4 µM; in [4], 24.9 µM; in [5], 48.2 µM; in [6], 32 µM. Also, the TGI is 45.6 µM in assay [7], 27.2 µM in assay [8], 31.2 µM in assay [9] and more than 100 µM in [10].

Turning to `O=C(Nc1ccc(Cl)c(Cl)c1)c1cccc(NC2=C(Cl)C(=O)N(Cc3ccccc3)C2=O)c1`, the GI50 in assay [1] was 48.8 µM; in assay [2], more than 100 µM; in assay [3], 14.4 µM; in assay [4], 36.6 µM; in assay [5] it was more than 100 µM; in assay [6], 35.7 µM. The GI50 in assay [7] is more than 100 µM; in [8], more than 100 µM; in [9], 45.4 µM; in assay [10] it was 21.1 µM. The TGI in assay [1] was more than 100 µM; in assay [2], more than 100 µM; in assay [3], 44.7 µM; in assay [4] it was more than 100 µM; in assay [5], more than 100 µM; in assay [6] it was more than 100 µM. In addition, the TGI is more than 100 µM in assay [7], more than 100 µM in assay [8], more than 100 µM in assay [9] and 91.1 µM in assay [10].

As for `COc1cc(NS(C)(=O)=O)ccc1Nc1c2ccc([N+](=O)[O-])cc2nc2c(C)cccc12`, the GI50 was 0.349 µM in assay [1]; 0.194 µM in [2]; 0.18 µM in assay [3]; 1.38 µM in assay [4]; 2.87 µM in assay [5]; 1.67 µM in assay [6]. Further, the GI50 in [7] was 0.213 µM; in assay [8], 0.107 µM; in [9] it was 1.96 µM; in assay [10] it was 1.45 µM. The TGI is 12.2 µM in [1]; 1.81 µM in [2]; 1.99 µM in assay [3]; 4.32 µM in assay [4]; 14.4 µM in assay [5]; 15 µM in assay [6]. In addition, the TGI in [7] was found to be 14.1 µM; in assay [8] it was 6.37 µM; in assay [9], 22.3 µM; in assay [10] it was 9.36 µM.

For the compound `O=C[C@@H](CO)O[C@H](C=O)c1c[nH]c(=O)[nH]c1=O`, the TGI turned out to be 646 µM in [1]; 309 µM in [2]; 672 µM in assay [3]; 327 µM in [4]; 379 µM in assay [5]; 155 µM in [6]. Also, the TGI in assay [7] turned out to be 813 µM; in [8] it was 258 µM; in [9] it was 402 µM; in [10] it was 343 µM.

As for `CCc1nc(N)nc(N)c1-c1ccc(NCCN)c([N+](=O)[O-])c1`, the TGI in assay [1] was more than 100 µM; in assay [2], 40 µM; in assay [3], more than 88.8 µM; in assay [4], more than 100 µM; in assay [5] it was more than 100 µM; in assay [6], more than 100 µM. Further, the TGI was more than 100 µM in assay [7], 75.8 µM in assay [8], more than 100 µM in [9] and more than 100 µM in [10].

Consider `COC(=O)[C@@]12C(=O)C=CC(=O)[C@@H]1C1C(=CC2COC(C)=O)O[C@@H]2OC3(CCCCC3)O[C@H]12` (some centres not stated), for which the TGI in assay [1] was found to be 12.1 µM; in assay [2], 32.5 µM; in [3], 22.7 µM; in assay [4], 18.7 µM; in assay [5], 30.7 µM; in [6] it was 29.8 µM. Further, the TGI in [7] turned out to be 29.8 µM; in [8] it was 35 µM; in [9], 31.6 µM; in assay [10], 31.6 µM.

For `Clc1ncnc(Cl)c1Cl`, the TGI in assay [1], in [2], in assay [3], in assay [4], in [5] and in assay [6] was more than 100 µM throughout. Moreover, the TGI in [7], in assay [8], in [9] and in assay [10] was more than 100 µM each time.

On to `COc1cccc(C2c3cc4c(cc3OC(C)(N3CCCC3)C2C)OCO4)c1OC` (configuration not stated), for which the TGI is more than 100 µM in assay [1]; 28.4 µM in [2]; more than 100 µM in assay [3]; 30.7 µM in assay [4]; 43 µM in assay [5]; 49.3 µM in [6]. For the same compound, the TGI in assay [7] was 95.5 µM; in [8] it was 30.6 µM; in assay [9], 52.5 µM; in [10], more than 100 µM.

On to `CC(=O)N[C@@H](Cc1ccc(OP(=O)(O)O)cc1)C(=O)N[C@H]1CCC(=O)N2CCC[C@@H](C(=O)NCc3ccc(Cl)cc3)N2C1=O`, for which the GI50 in assay [1], in [2], in assay [3], in assay [4], in [5] and in [6] was more than 25 µM throughout. The GI50 in assay [7], in [8], in assay [9] and in [10] was more than 25 µM each time. In addition, the TGI in [1], in assay [2], in assay [3], in assay [4], in assay [5] and in assay [6] was more than 25 µM each time. Also, the TGI in assay [7], in [8], in assay [9] and in [10] was more than 25 µM in each case.

For the compound `COc1ccc(OC)c(/C=N/NC(=O)Cc2csc3nc(-c4ccc(Br)cc4)cn23)c1`, the GI50 in [1] is 6.44 µM; in assay [2], 8.89 µM; in assay [3] it was 10.3 µM; in [4] it was 7.42 µM; in assay [5], 50.2 µM; in [6] it was 3.96 µM. Further, the GI50 in assay [7] is 31.4 µM; in assay [8], 13.2 µM; in assay [9], 11.6 µM; in assay [10], 4.02 µM. The TGI in assay [1] is 49.1 µM; in assay [2], 42.5 µM; in assay [3], more than 100 µM; in assay [4] it was 65.1 µM; in [5] it was more than 100 µM; in [6] it was 16.2 µM. The TGI in assay [7] is more than 100 µM; in assay [8], 30.3 µM; in assay [9], 45.4 µM; in assay [10], 26.7 µM.

Consider `COc1ccc2oc(=O)cc(C(c3ccc[nH]3)c3ccc[nH]3)c2c1`, for which the GI50 is 0.12 µM in assay [1]; 0.08 µM in [2]; 0.376 µM in [3]; 0.1 µM in [4]; 0.128 µM in assay [5]; 0.208 µM in [6]. Further, the GI50 in assay [7] is 0.132 µM; in assay [8], 0.107 µM; in [9] it was 0.171 µM; in assay [10], 0.106 µM. The TGI in [1] was found to be 16.8 µM; in assay [2], 0.141 µM; in assay [3], 3.64 µM; in [4], 11.5 µM; in [5], 19.9 µM; in assay [6], 0.485 µM. Further, the TGI in assay [7] was 16.4 µM; in assay [8] it was 11.7 µM; in assay [9] it was 50.5 µM; in assay [10] it was 17.6 µM.

For `CC1(C)N=C(N)N=C(N)N1c1cccc(CCCCc2cccc(S(=O)(=O)F)c2)c1`, the GI50 in [1] is 0.342 µM; in assay [2], 0.535 µM; in assay [3], 2.31 µM; in assay [4] it was 14.1 µM; in [6], 0.329 µM; in [7], 1.53 µM. Moreover, the GI50 in assay [8] is 3.04 µM; in assay [9], 51.1 µM; in assay [10], 0.157 µM. Further, the TGI in assay [1] is more than 100 µM; in assay [2], 14.8 µM; in assay [3] it was 35.2 µM; in assay [4], more than 100 µM; in [5] it was more than 100 µM; in [6] it was 29 µM. The TGI was more than 77.7 µM in [7], more than 47.9 µM in assay [8], more than 100 µM in assay [9] and more than 58.3 µM in assay [10].

For `O=[N+]([O-])c1ccc(S(=O)(=O)Cc2ccccc2)c([N+](=O)[O-])c1`, the TGI in [1] is 20.1 µM; in [2], 4.9 µM; in assay [3], 5.78 µM; in assay [4], 3.94 µM; in assay [5], 27.3 µM; in assay [6] it was 3.34 µM. The TGI was 39.6 µM in [7], 9.13 µM in assay [8], more than 91.7 µM in assay [9] and 6.36 µM in assay [10].

As to `COC(=O)CCC(=O)C(=O)OC`, the GI50 was 53600 µM in assay [1]; 94300 µM in assay [2]; 17200 µM in assay [3]; 31500 µM in assay [4]; 26100 µM in assay [5]; 62100 µM in assay [6]. Also, the GI50 in [7] is 34200 µM; in [8] it was 23700 µM; in assay [9], 26600 µM; in assay [10], 19000 µM. The TGI in assay [3] was 51200 µM; in assay [9], 97100 µM; in assay [10] it was 76800 µM.
